Laboratory results published in US20260193294A1, “POLYPEPTIDE INHIBITOR, AND PREPARATION METHOD THEREFOR AND USE THEREOF” (SHANGHAI HANSOH BIOMEDICAL CO., LTD., priority 2022, published 2026).

How the values were obtained:
[1] = Pharmacokinetic determination in rats (IV); conditions: male, Sprague-Dawley (SD), rat, plasma, 1 mg/kg
Description: (§11) SD rats were used as test animals to study the pharmacokinetic behavior of the compounds of the examples in the rats (plasma) after oral or IV administration.
Preparation of intravenous drug: PBS
(§12) The compounds of the examples were weighed and dissolved in this solution, vortexed, ultrasonicated for 5 min, and filtered through a 0.22 μm filter membrane to obtain colorless clear solutions with a concentration of 0.2 mg/mL.
(§13) 3 SD rats/group, male were fasted overnight and then respectively administered IV at a dose of 1 mg/kg and a volume of 5 mL/kg.
(§14) • Before administration and at 0.083 h, 0.25 h, 0.5 h, 1.0 h, 2.0 h, 4.0 h, 6.0 h, 8.0 h, and 24.0 h after administration (IV), 0.2 mL of blood was collected from the jugular vein, placed in an EDTA-2K test tube, and centrifuged at 6000 rpm for 6 min at 4° C. to separate plasma, which was stored at −20° C.; and the rats were fed 4 h after administration.
(§15) 1) Acetonitrile (200 μL) was added to the plasma sample (50 μL) for precipitation, and the mixture was mixed and centrifuged at 4500 rpm for 15 min.
(§16) 2) The treated supernatant solution was taken and subjected to LC/MS/MS to analyze the concentrations of the test compounds. LC/MS/MS analysis instrument: AB Sciex Triple Quad 6500+.
(§17) • Liquid phase conditions: Shimadzu LC-30AD pump • Chromatographic column: HALO 90A PFP 2.7 μm 2.1×30 mm, mobile phase: liquid A: 5% acetonitrile aqueous solution (0.1% formic acid), and liquid B: an aqueous solution of 95% acetonitrile (0.1% formic acid) • Flow rate: 0.6 mL/min • Elution time: 0-2.0 min, the eluent was as follows:
(§18) The main pharmacokinetic parameters were calculated using WinNonlin 8.1.

[2] = Pharmacokinetic determination in beagle dogs (IV); conditions: male, dog, plasma, 0.2 mg/kg
Description: (§19) Beagle dogs were used as test animals to study the pharmacokinetic behavior of the compounds of the examples in the rats (plasma) after IV administration.
(§20) 3 beagle dogs/group, male, from Yizheng Anlimao Biotechnology Co., Ltd.
(§21) The compounds of the examples were weighed and dissolved in this solution, vortexed, ultrasonicated for 5 min, and filtered through a 0.22 μm filter membrane to obtain colorless clear solutions with a concentration of 0.1 mg/mL.
(§22) 3 beagle dogs/group, male were fasted overnight and then respectively administered IV at a dose of 0.2 mg/kg and a volume of 2 mL/kg.
(§23) 1) Acetonitrile (200 μL) was added to the plasma sample (50 L) for precipitation, and the mixture was mixed and centrifuged at 4500 rpm for 15 min.
as §16
(§24) Premier Peptide CSH C18 130A 1.7 μm 2.1*100 mm Column, mobile phase: liquid A: 5% acetonitrile aqueous solution (0.1% formic acid), and liquid B: an aqueous solution of 95% acetonitrile (0.1% formic acid) • Flow rate: 0.6 mL/min • Elution time: 0-2.0 min, the eluent was as follows:
as §18

in vivo [3] = conditions: male, Sprague-Dawley (SD), rat, iv, 1 mg/kg
Description: as §11
Preparation of intravenous drug: PBS
as §12, §13, §14, §15, §16, §17, §18

in vivo [4] = conditions: male, beagle, dog, iv, 0.2 mg/kg
Description: as §19, §20, §21, §22, §23, §16, §24, §18

in vitro = in vitro ADME; conditions: 37° C.; for half-life at 0.5 μM: in vitro half-life, read-out: t1/2 (converted); for remaining at 4 h, 0.5 µM: read-out: Residual ratio % at 4 h
Description: (§1) To study the stability of the compounds of the examples in the plasmas of mice, rats, dogs and humans.
(§2) Preparation of plasma: Animal or human whole blood was collected, then put into a test tube containing an anticoagulant, and centrifuged at 3500 rpm for 10 min, and the upper pale yellow plasma was collected; • working solution of 10 μM test compound: a stock solution was prepared with DMSO, and the working solution was prepared with 100 mM phosphate buffer; • working solution of 10 μM positive control: • procaine: 2.36 mg of procaine was weighed and diluted into a 10 mM stock solution with 1 mL of DMSO. 10 μL of the 10 mM stock solution was pipetted into 1 mL of 100 mM phosphate buffer, such that the final concentration was 100 μM; and • enalapril: 4.93 mg of enalapril was weighed and diluted into a 10 mM stock solution with 1 mL of DMSO; and 10 μL of the 10 mM stock solution was pipetted into 1 mL of 100 mM phosphate buffer, such that the final concentration was 100 μM.
(§3) In a 96-well plate, 285 μL of plasma and 15 μL of 10 μM compound (test compound, and positive control) were successively added and incubated at 37° C.
(§4) 40 μL was taken at 0, 15, 30, 60, 90, and 120 min (sampling points could be fine-tuned), respectively, and 160 μL of an acetonitrile stop solution containing an internal standard was added.
(§5) After centrifugation (3500 rpm, 10 min), 50 μL of the supernatant was taken, diluted by adding 50 μL of DDH2O, and then injected for LC-MS/MS.
(§6) • Instrument: Shimadzu LC-20 AD • Chromatographic column: Phenomenex Gemiu® C18 (50*4.6 mm, 5 μm particle size) • Mobile phase: A: acetonitrile, B: 0.1% formic acid solution • Elution gradient: […]: 5% A→95% A, 2.0-2.1 min: […] • Flow rate: 0.8 mL/min • Run time: 5.0 min • Injection volume: 5 μL
(§7) • Instrument: API4000 liquid chromatography mass spectrometer, AB, US • Ion source: electrospray ionization source (ESI) • Drying gas: N2, temperature 500° C. • Electrospray voltage: 5500V • Detection mode: positive ion detection • Scan mode: multi reaction monitoring (MRM) mode • Scan time: 0.1 s
(§8) All calculations were carried out using Microsoft Excel. The peak area ratio was determined by an extracted ion chromatogram.
(§9) The residual percentage of the compound at each time point was calculated by the following equation: Residual percentage at t hours (%)=peak area ratio at t hours/peak area ratio at 0 hour×100%, in which the peak area ratio at t hr was the peak area ratio of the […] at t min; and • the slope value k was determined by linear regression on the natural logarithm of the curve of the residual percentage of the parent drug versus the incubation time.
(§10) In vitro half-life (in vitro t1/2) was determined by the slope value: […]

Solubility in PBS = type: physicochemical; conditions: PBS pH 7.4, room temperature
Description: To study the solubility of the compounds in PBS.
About 2 mg of the compound was weighed, an appropriate amount of a PBS solution was added, and the mixture was dissolved clear by ultrasonication for 10 seconds. No precipitation was found after standing at room temperature overnight.

[5] = Stability in plasma (human); type: in vitro ADME
Description: as §1, §2, §3, §4, §5, §6, §7, §8, §9, §10

`CC(=O)NCCCC[C@@H]1NC(=O)[C@H](Cc2c[nH]c3c(C)cccc23)NC(=O)[C@H]([C@@H](C)O)NC(=O)[C@H](CC(N)=O)NC(=O)[C@@H](NC(C)=O)C(C)(C)SSC(C)(C)[C@@H](C(=O)N[C@@H](Cc2ccc(OCCN)cc2)C(=O)N[C@@H](Cc2ccc3ccccc3c2)C(=O)NC2(C(=O)N[C@@H](CCC(=O)O)C(=O)N[C@@H](CC(N)=O)C(=O)N[C@@H](Cc3cccnc3)C(=O)N(C)CCNC(=O)CCOCCOCC[N+](C)(C)CCNC(=O)COCCOCCNC(=O)COCCOCCNC(=O)CC[C@H](NC(=O)CCCCCCCCCCCCCCC(=O)O)C(=O)O)CCC(F)(F)CC2)NC1=O` [Example 1-16-1] showed an AUC(0-inf) [1] of 47600 ng·h/mL, an AUC(0-t) [1] of 46100 ng·h/mL and a C0 [1] of 12600 ng/mL. It also gave an MRT [1] of 6.2 h, a clearance [1] of 0.35 mL/min/kg and an AUC(0-inf) [2] of 76400 ng·h/mL. It also gave an AUC(0-t) [2] of 68800 ng·h/mL, a C0 [2] of 2750 ng/mL and an MRT [2] of 66.9 h. For the same molecule, the clearance [2] was 0.04 mL/min/kg, the half-life (in vivo [3]) was 5 h and the half-life (in vivo [4]) was 53.8 h. For the same molecule, the half-life at 0.5 μM (in vitro; Dog plasma) was 3.15 days, the remaining at 4 h, 0.5 µM (in vitro; Dog plasma) was 90.5% and the half-life at 0.5 μM (in vitro; Rat plasma) was 25.1 days. For the same molecule, the remaining at 4 h, 0.5 µM (in vitro; Rat plasma) was 104%, the half-life at 0.5 μM (in vitro; mouse, Mice plasma) was 83.6 days and the remaining at 4 h, 0.5 µM (in vitro; mouse, Mice plasma) was 104%. For the same molecule, the solubility (Solubility in PBS) was 39.6 to 59.4 mg/mL, the remaining at 4 h, 0.5 µM ([5]; Human plasma, 37° C., read-out: Residual ratio % at 4 h) was 94.8% and the half-life at 0.5 μM ([5]; human, plasma) was 41.3 h.
